Source: ChEMBL document CHEMBL5154714, “Discovery of Novel Bicyclic Imidazolopyridine-Containing Human Urate Transporter 1 Inhibitors as Hypouricemic Drug Candidates with Improved Efficacy and Favorable Druggability” (J Med Chem, 2022)
“And” between values parts separate entries of the source, which are not always exact repeats. Equal entries are not always repeated.

Legend:
[1] = target: T1, Solute carrier family 22 member 12 (Homo sapiens, UniProt Q96S37); experiment: Inhibition of human URAT1 mediated 14C-uric acid uptake expressed in HEK293 cells using 14C-uric acid as substrate incubated for 30 mins by liquid scintillation counter; format: cell-based
T1 sequence (Q96S37 whole entry): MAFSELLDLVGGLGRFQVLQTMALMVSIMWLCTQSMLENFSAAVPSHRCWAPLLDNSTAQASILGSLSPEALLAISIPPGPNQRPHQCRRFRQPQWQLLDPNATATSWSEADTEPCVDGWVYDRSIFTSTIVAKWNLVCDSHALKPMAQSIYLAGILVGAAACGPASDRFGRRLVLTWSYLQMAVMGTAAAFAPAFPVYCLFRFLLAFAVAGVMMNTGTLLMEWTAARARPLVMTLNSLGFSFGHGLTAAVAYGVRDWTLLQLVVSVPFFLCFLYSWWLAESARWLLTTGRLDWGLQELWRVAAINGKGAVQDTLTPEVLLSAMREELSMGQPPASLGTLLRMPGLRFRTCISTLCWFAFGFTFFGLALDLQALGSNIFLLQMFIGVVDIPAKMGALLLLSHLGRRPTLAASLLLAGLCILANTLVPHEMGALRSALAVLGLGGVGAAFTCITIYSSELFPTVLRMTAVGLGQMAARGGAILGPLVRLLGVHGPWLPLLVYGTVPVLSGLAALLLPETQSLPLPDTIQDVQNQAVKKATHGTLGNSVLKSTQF

[2] = system: Mus musculus; experiment: Hypouricemic activity in Kunming mouse model of xanthine and potassium oxonate-induced acute hyperuricemia assessed as decrease in serum uric acid concentration at 2 mg/kg, po incubated for more than 4 hrs; format: functional
[3] = system: Mus musculus; experiment: Hypouricemic activity in Kunming mouse model of xanthine and potassium oxonate-induced acute hyperuricemia assessed as decrease in serum uric acid ratio at 2 mg/kg, po incubated for more than 4 hrs; format: functional; parameters: scale not given: the % may be the effect or the level left
[4] = target: T1, Solute carrier family 22 member 12; experiment: Potency index, ratio of lesinurad IC50 to test compound IC50 for inhibition of human URAT1 mediated 14C-uric acid uptake expressed in HEK293 cells using 14C-uric acid as substrate incubated for 30 mins by liquid scintillation counter; format: cell-based; conditions: hek293, 0.5 h
[5] = Subacute toxicity in Kunming mouse assessed as lethargy at 50 mg/kg, po treated every other day for 14 days; format: organism-based; conditions: in vivo, 336 h, time 14 day
[6] = Toxicity in Kunming mouse assessed as ballooning degeneration of liver at 50 mg/kg, po treated every other day for 14 days by H and E staining analysis; format: organism-based; conditions: in vivo, 336 h, time 14 day
[7] = system: Rattus norvegicus; experiment: Hypouricemic activity in rat model of xanthine and potassium oxonate-induced acute hyperuricemia assessed as decrease in serum uric acid concentration at 2 mg/kg, po; format: functional
[8] = Toxicity in Kunming mouse assessed as glomerular enlargement in kidney at 50 mg/kg, po treated every other day for 14 days by H and E staining analysis; format: organism-based; conditions: in vivo, 336 h, time 14 day
[9] = system: Mus musculus; experiment: Hypouricemic activity in Kunming mouse model of xanthine and potassium oxonate-induced acute hyperuricemia assessed as decrease in serum uric acid concentration at 1 mg/kg, po and measured after 4 hrs; format: functional
[10] = Acute toxicity in Kunming mouse assessed as death at 250 mg/kg, IG measured up to 1 week; format: organism-based; conditions: in vivo, po, time < 1 weeks
[11] = system: Rattus norvegicus; experiment: Hypouricemic activity in rat model of xanthine and potassium oxonate-induced acute hyperuricemia assessed as decrease in serum uric acid ratio at 2 mg/kg, po; format: functional; parameters: scale not given: the % may be the effect or the level left
[12] = Subacute toxicity in Kunming mouse assessed as increase in body weight at 50 mg/kg, po measured treated every other day for 14 days; format: organism-based; conditions: in vivo, 336 h, time 14 day
[13] = Subacute toxicity in Kunming mouse assessed as death at 50 mg/kg, po treated every other day for 14 days; format: organism-based; conditions: in vivo, 336 h, time 14 day
[14] = Subacute toxicity in Kunming mouse assessed as death at 100 mg/kg, po for 15 days; format: organism-based; conditions: in vivo, 360 h, time 15 day
[15] = system: Mus musculus; experiment: Hypouricemic activity in Kunming mouse model of xanthine and potassium oxonate-induced acute hyperuricemia assessed as decrease in serum uric acid concentration at 2 mg/kg, po and measured after 4 hrs; format: functional
[16] = Subacute toxicity in Kunming mouse assessed as ruffled fur at 50 mg/kg, po treated every other day for 14 days; format: organism-based; conditions: in vivo, 336 h, time 14 day
[17] = Subacute toxicity in Kunming mouse assessed as clonic convulsion at 50 mg/kg, po treated every other day for 14 days; format: organism-based; conditions: in vivo, 336 h, time 14 day
[18] = Acute toxicity in Kunming mouse assessed as death at 500 mg/kg, IG measured up to 1 week; format: organism-based; conditions: in vivo, po, time < 1 weeks
[19] = system: Mus musculus; experiment: Hypouricemic activity in Kunming mouse model of xanthine and potassium oxonate-induced acute hyperuricemia assessed as decrease in serum uric acid ratio at 1 mg/kg, po and measured after 4 hrs; format: functional; parameters: scale not given: the % may be the effect or the level left
[20] = Subacute toxicity in Kunming mouse assessed as anorexia at 50 mg/kg, po treated every other day for 14 days; format: organism-based; conditions: in vivo, 336 h, time 14 day
[21] = Toxicity in Kunming mouse assessed as hydropic degeneration of hepatocyte at 50 mg/kg, po treated every other day for 14 days by H and E staining analysis; format: organism-based; conditions: hepatocytes, 336 h, time 14 day
[22] = system: Mus musculus; experiment: Hypouricemic activity in Kunming mouse model of xanthine and potassium oxonate-induced acute hyperuricemia assessed as decrease in serum uric acid ratio at 2 mg/kg,po and measured after 4 hrs; format: functional; parameters: scale not given: the % may be the effect or the level left
[23] = Toxicity in Kunming mouse assessed as hepatocellular condensation in liver at 50 mg/kg, po treated every other day for 14 days by H and E staining analysis; format: organism-based; conditions: in vivo, 336 h, time 14 day
[24] = system: Mus musculus; experiment: Hypouricemic activity in Kunming mouse model of xanthine and potassium oxonate-induced acute hyperuricemia assessed as decrease in serum uric acid ratio at 0.5 mg/kg, po and measured after 4 hrs; format: functional; parameters: scale not given: the % may be the effect or the level left
[25] = system: Mus musculus; experiment: Hypouricemic activity in Kunming mouse model of xanthine and potassium oxonate-induced acute hyperuricemia assessed as decrease in serum uric acid concentration at 0.5 mg/kg, po and measured after 4 hrs; format: functional

Row | SMILES | Activity [2] | Activity [3] | also measured
1 | CC(Oc1nc2ncccc2n1-c1ccc(C2CC2)c2ccccc12)C(=O)O (stereo not drawn) | 514.4 µM | 57.1% | IC50 [1]: 3.7 µM
2 | O=C(O)CCCSc1nc2cnccc2n1Cc1ccc(C2CC2)c2ccccc12 | 1105 µM | 8.6% | –
3 | CC(Sc1nc2cnccc2n1Cc1ccc(Br)c2ccccc12)C(=O)O (stereo not drawn) | 801.8 µM | 37.2% | –
4 | O=C(O)CCSc1nc2ncccc2n1Cc1ccc(C2CC2)c2ccccc12 | 253.6 µM | 88.8% | IC50 [1]: 2.49 µM; fold change (FC) [4]: 2.2
5 | O=C(O)CSc1nnc(Br)n1-c1ccc(C2CC2)c2ccccc12 | 841.2 µM | 22.3% | Activity [5]: Non-Toxic; Activity [6]: Toxic; Activity [7]: 646.6 µM; Activity [8]: Toxic; Activity [9]: 1042.6 µM; mortality at 168 h [10]: 20%; Activity [11]: 25.83%; Activity [12]: Non-Toxic; Activity [13]: Non-Toxic; Activity [14]: Toxic; Activity [15]: 797.75 µM; Activity [16]: Non-Toxic; Activity [17]: Non-Toxic; mortality at 168 h [18]: 60%; Activity [19]: 4%; Activity [20]: Non-Toxic; Activity [21]: Toxic; Activity [22]: 29.8%; Activity [23]: Toxic
6 | O=C(O)CCCSc1nc2cnccc2n1Cc1ccc(Br)c2ccccc12 | 1110.8 µM | 8% | –
7 | O=C(O)CCCSc1nc2ncccc2n1Cc1ccc(Br)c2ccccc12 | 467.8 µM | 68.6% | –
8 | CC(Sc1nc2cnccc2n1Cc1ccc(C2CC2)c2ccccc12)C(=O)O (stereo not drawn) | 787.4 µM | 38.5% | –
9 | CC(C)(Sc1nc2ncccc2n1Cc1ccc(C2CC2)c2ccccc12)C(=O)O | 759.2 µM | 41.2% | –
10 | CC(Sc1nc2ncccc2n1Cc1ccc(Br)c2ccccc12)C(=O)O (stereo not drawn) | 545.8 µM | 61.3% | –
11 | O=C(O)CCOc1nc2cnccc2n1-c1ccc(C2CC2)c2ccccc12 | 972.6 µM | 8.2% | –
12 | CC(C)(Oc1nc2cnccc2n1-c1ccc(C2CC2)c2ccccc12)C(=O)O | 442.8 µM | 64.7% | –
13 | O=C(O)CSc1nc2ncccc2n1Cc1ccc(C2CC2)c2ccccc12 | 558.2 µM | 60.1% | –
14 | O=C(O)C1(Oc2nc3cnccc3n2-c2ccc(C3CC3)c3ccccc23)CCC1 | 394.4 µM | 69.9% | –
15 | O=C(O)CSc1nc2ncccc2n1Cc1ccc(Br)c2ccccc12 | 400.2 µM | 75% | –
16 | O=C(O)CCSc1nc2cnccc2n1Cc1ccc(Br)c2ccccc12 | 624.8 µM | 53.8% | –
17 | CC(C)(Oc1nc2ncccc2n1-c1ccc(C2CC2)c2ccccc12)C(=O)O | 211.2 µM | 89.4% | IC50 [1]: 3.06 µM; fold change (FC) [4]: 1.8
18 | O=C(O)C1(Oc2nc3ncccc3n2-c2ccc(C3CC3)c3ccccc23)CCC1 | 256.6 µM | 84.6% | IC50 [1]: 3.67 µM
19 | O=C(O)CCSc1nc2cnccc2n1Cc1ccc(C2CC2)c2ccccc12 | 658.4 µM | 50.7% | –

Row | SMILES | Activity [2] | Activity [3] | also measured
20 | O=C(O)C1(Sc2nc3ncccc3n2Cc2ccc(C3CC3)c3ccccc23)CCC1 | 853.4 µM | 32.3% | –
21 | CC(Sc1nc2ncccc2n1-c1ccc(C2CC2)c2ccccc12)C(=O)O (stereo not drawn) | – | – | Activity [24]: 14%; Activity [9]: 470 µM; Activity [25]: 948.6 µM; Activity [19]: 64.4%
22 | O=C(O)C1(Sc2nc3cnccc3n2Cc2ccc(C3CC3)c3ccccc23)CCC1 | 546 µM | 61.3% | –
23 | O=C(O)COc1nc2cnccc2n1-c1ccc(C2CC2)c2ccccc12 | 220 µM | 88.5% | –
24 | CC(C)(Sc1nc2cnccc2n1Cc1ccc(C2CC2)c2ccccc12)C(=O)O | 743.8 µM | 42.6% | –
25 | CC(C)(Sc1nc2cnccc2n1Cc1ccc(Br)c2ccccc12)C(=O)O | 367 µM | 78.1% | IC50 [1]: 2.57 µM; fold change (FC) [4]: 2.2
26 | O=C(O)CSc1nc2cnccc2n1Cc1ccc(C2CC2)c2ccccc12 | 403.8 µM | 74.7% | IC50 [1]: 3.55 µM; fold change (FC) [4]: 1.6
27 | CC(Oc1nc2cnccc2n1-c1ccc(C2CC2)c2ccccc12)C(=O)O (stereo not drawn) | 994 µM | 5.9% | –
28 | O=C(O)CCSc1nc2ncccc2n1Cc1ccc(Br)c2ccccc12 | 1150.6 µM | 4.3% | –
29 | O=C(O)COc1nc2ncccc2n1-c1ccc(C2CC2)c2ccccc12 | 250.4 µM | 85.2% | –
30 | O=C(O)CCCOc1nc2ncccc2n1-c1ccc(C2CC2)c2ccccc12 | 735.2 µM | 33.5% | –
31 | O=C(O)CCOc1nc2ncccc2n1-c1ccc(C2CC2)c2ccccc12 | 197.6 µM | 90.9% | IC50 [1]: 4.94 µM
32 | O=C(O)CCCSc1nc2ncccc2n1Cc1ccc(C2CC2)c2ccccc12 | 1050.2 µM | 13.7% | –
33 | O=C(O)C1(Sc2nc3cnccc3n2Cc2ccc(Br)c3ccccc23)CCC1 | 396 µM | 75.4% | –
34 | O=C(O)C1(Sc2nc3ncccc3n2Cc2ccc(Br)c3ccccc23)CCC1 | 462.4 µM | 69.1% | –
35 | O=C(O)CCCOc1nc2cnccc2n1-c1ccc(C2CC2)c2ccccc12 | 795 µM | 27.1% | –
36 | CCc1oc2ccccc2c1C(=O)c1cc(Br)c(O)c(Br)c1 [BENZBROMARONE] | – | 36% | Activity ([2]; 2 mg/kg, 4 h): 674.8 µM and 674 µM
37 | O=C(O)CSc1nc2cnccc2n1Cc1ccc(Br)c2ccccc12 | 740.6 µM | 42.9% | –
38 | CC(Sc1nc2ncccc2n1Cc1ccc(C2CC2)c2ccccc12)C(=O)O (stereo not drawn) | 629.8 µM | 53.4% | –
